In patent US8507537B2, “Trifluromethoxyphenyl-substituted tetramic acid derivatives pesticides and/or herbicides” (Bayer CropScience AG, priority 2006, dated 2013):

Experiments:
Format in all cases: in vivo
[1] = system: green peach aphid (Myzus persicae); test: Activity boost through ammonium/phosphonium salts in combination with penetration promoters, Myzus persicae test; conditions: 20 ppm active compound
Procedure: Activity Boost Through Ammonium/Phosphonium Salts in Combination with Penetration Promoters
(§1) Solvent: 7 parts by weight of dimethylformamide
(§2) Emulsifier: 2 parts by weight of alkylaryl polyglycol ether
To produce a suitable preparation of active compound, 1 part by weight of active compound is mixed with the stated amounts of solvent and emulsifier, and the concentrate is diluted with water to the desired concentration. For application with ammonium salts or phosphonium salts and penetration promoters (rapeseed oil methyl ester 500 EW) these are in each case added in a concentration of 1000 ppm to the spray liquor.
Bell pepper plants (Capsicum annuum) heavily infested by the green peach aphid (Myzus persicae) are sprayed to runoff with the preparation of active compound at the desired concentration. After the desired time, the kill in % is determined. 100% means that all of the animals have been killed; 0% means that no animals have been killed.

[2] = system: cotton aphid (Aphis gossypii); test: Activity boost through ammonium/phosphonium salts, Aphis gossypii test
Procedure: as §1, §2
To produce a suitable preparation of active compound, 1 part by weight of active compound is mixed with the stated amounts of solvent and emulsifier, and the concentrate is diluted with emulsifier-containing water to the desired concentration. For application with ammonium salts or phosphonium salts these are added in a concentration of 1000 ppm a.i. to the spray liquor.
(§3) Cotton plants (Gossypium hirsutum) heavily infested by the cotton aphid (Aphis gossypii) are sprayed to runoff with the preparation of active compound at the desired concentration.
(§4) After the desired period of time, the kill in % is determined. 100% means that all aphids have been killed; 0% means that none of the aphids have been killed.

[3] = system: Summer wheat; test: Greenhouse container trials with cereals, use of safeners (post-emergence herbicidal effect on crop)
Procedure: (§5) Post-Emergence Herbicidal Effect
Seeds of monocotyledonous and dicotyledonous weed plants and crop plants are placed in sandy loam soil in wood fibre pots or in plastic pots and are covered with earth and cultivated in a greenhouse and also, during the vegetation period, outdoors, outside of the greenhouse, under good growth conditions. 2 to 3 weeks after sowing, the trial plants are treated at the one- to three-leaf stage. The test compounds, formulated as wettable powders (WP) or liquids (EC), are sprayed onto the plants and the soil surface in various dosages, with a water application rate of 300 l/ha (converted) and with addition of wetting agent (0.2% to 0.3%). […]
(§6) If the testing is also to look at whether safeners can improve the tolerance of the crop plants for test substances, the following options are used for the application of the safener: • seeds of the crop plants are dressed with the safener substance prior to sowing (the amount of safener is stated as a percentage, based on the seed weight) • crop plants are sprayed with the safener, with a defined application rate per hectare, prior to application of the test substances (typically 1 day before the test substances are applied) • the safener is applied together with the test substance in the form of a tank mix (the amount of safener is reported in g/ha or as a proportion relative to the herbicide).
(§7) By comparing the effect of test substances on crop plants which have been treated with safener and without safener it is possible to assess the effect of the safener substance.
(§8) Greenhouse Container Trials with Cereals
(§9) Mefenpyr 1 Day Prior to Herbicide Application

[4] = system: Summer barley; test: as above; conditions: without safener; for Summer barley observed (%): 28 days after application; for Summer barley observed (%) herbicidal effect: 10 days after application
Procedure: as §5
Seeds of monocotyledonous and dicotyledonous weed plants and crop plants are placed in sandy loam soil in wood fibre pots or in plastic pots and are covered with earth and cultivated in a greenhouse and also, during the vegetation period, outdoors, outside of the greenhouse, under good growth conditions. 2 to 3 weeks after sowing, the trial plants are treated at the one- to three-leaf stage. The test compounds, formulated as wettable powders (WP) or liquids (EC), are sprayed onto the plants and the soil surface in various dosages, with a water application rate of 300 l/ha (converted) and with addition of wetting agent (0.2% to 0.3%). 3 to 4 weeks after the trial plants have been treated, the effect of the products is rated visually in comparison to untreated controls (herbicidal effect in percent: 100% effect=plants have died, 0% effect=like control plants).
as §6, §7, §8, §9

[5] = system: cotton aphid (Aphis gossypii); test: Activity boost through ammonium/phosphonium salts in combination with penetration promoters, Aphis gossypii test; conditions: 4 ppm active compound
Procedure: as §1, §2
To produce a suitable preparation of active compound, 1 part by weight of active compound is mixed with the stated amounts of solvent and emulsifier, and the concentrate is diluted with emulsifier-containing water to the desired concentration. For application with ammonium salts or phosphonium salts and penetration promoters (rapeseed oil methyl ester 500 EW) these are in each case added in a concentration of 1000 ppm a.i. to the spray liquor.
as §3, §4

[6] = system: green peach aphid (Myzus persicae); test: Activity boost through ammonium/phosphonium salts, Myzus persicae test; conditions: 20 ppm active compound
Procedure: Activity Boost Through Ammonium/Phosphonium Salts
as §1, §2
To produce a suitable preparation of active compound, 1 part by weight of active compound is mixed with the stated amounts of solvent and emulsifier, and the concentrate is diluted with water to the desired concentration. For application with ammonium salts or phosphonium salts these are added in a concentration of 1000 ppm a.i. to the spray liquor.
Bell pepper plants (Capsicum annuum) which are heavily infested by the Green peach aphid (Myzus persicae) are treated with the active compound preparation of the desired concentration by spraying to runoff point. After the desired period of time, the kill in % is determined. 100% means that all animals have been killed; 0% means that none of the animals have been killed.

[7] = system: rice brown planthopper (Nilaparvata lugens); test: Nilaparvata lugens test (NILALU hydroponic treatment); conditions: concentration of 500 ppm after 7 d
Procedure: NILALU Hydroponic Treatment
• 78 parts by weight of acetone • 1.5 parts by weight of dimethylformamide Emulsifier: • 0.5 part by weight of alkylaryl polyglycol ether
To produce a suitable preparation of active compound, 1 part by weight of active compound is mixed with the stated amounts of solvents and emulsifier, and the concentrate is diluted with emulsifier-containing water to the desired concentration.
The active compound preparation is pipetted into water. The stated concentration refers to the amount of active compound per volume unit of water (mg/l=ppm); the infection with the rice brown planthopper (Nilaparvata lugens) is then carried out.
After the desired period of time, the effect in % is determined. 100% means that all rice planthoppers have been killed; 0% means that none of the rice planthoppers have been killed.

[8] = +RME + AS (in each case 1000 ppm)
[9] = 20 ppm active compound, +AS (1000 ppm)
[10] = 20 ppm active compound, without AS

Structure (SMILES): COC1CCC2(CC1)NC(=O)C(c1c(Cl)cc(OC(F)(F)F)cc1Cl)=C2O (single isomer, unassigned) [I-a-29]
- Kill rate/% after 6 days ([1]; +AS (1000 ppm)): 70%
- Kill rate/% after 6 days ([1]; +RME (1000 ppm)): 95%
- Kill rate/% after 6 days [1, 8]: 100%
- Kill rate/% after 6 days ([1]; without additive): 0%
- Kill rate/% after 6 days ([2]; 4 ppm active compound, +AS (1000 ppm)): 70%
- Kill rate/% after 6 days ([2]; 4 ppm active compound, without AS): 5%
- Kill rate/% after 6 days [2, 9]: 85%
- Kill rate/% after 6 days [2, 10]: 70%

Structure (SMILES): COC1CCC2(CC1)NC(=O)C(c1c(C)cc(C)cc1OC(F)(F)F)=C2OC(C)=O (single isomer, unassigned) [(I-b-25)]
- Summer wheat observed (%) herbicidal effect ([3]; 100 g of a.i./ha, 10 days after application, without safener (table of I-b-25)): 20%

Structure (SMILES): COC1CCC2(C1)NC(=O)C(c1c(C)cc(C)cc1OC(F)(F)F)=C2O (single isomer, unassigned) [I-a-50]
- Summer barley observed (%) ([4]; 12.5 g of a.i./ha): 8%
- Summer barley observed (%) ([4]; 25 g of a.i./ha): 30%
- Summer barley observed (%) ([4]; 50 g of a.i./ha): 50%
- Summer barley observed (%) ([4]; 100 g of a.i./ha): 60%
- Summer wheat observed (%) ([3]; 28 days after application, 12.5 g of a.i./ha, without safener): 10%
- Summer wheat observed (%) ([3]; 28 days after application, 25 g of a.i./ha, without safener): 40%
- Summer wheat observed (%) ([3]; 28 days after application, 50 g of a.i./ha, without safener): 60%
- Summer wheat observed (%) ([3]; 28 days after application, 100 g of a.i./ha, without safener): 70%

Structure (SMILES): COC1CCC2(CC1)NC(=O)C(c1c(Br)cc(OC(F)(F)F)cc1Br)=C2O (single isomer, unassigned) [I-a-32]
- Kill rate/% after 6 days ([5]; +AS (1000 ppm)): 30%
- Kill rate/% after 6 days ([5]; +RME (1000 ppm)): 70%
- Kill rate/% after 6 days [5, 8]: 80%
- Kill rate/% after 6 days ([5]; without additive): 5%
- Kill rate/% after 6 days ([6]; +AS (1000 ppm)): 85%
- Kill rate/% after 6 days ([6]; without AS): 0%

Structure (SMILES): O=C1NC2(CCOCC2)C(O)=C1c1cc(OC(F)(F)F)ccc1Br [I-a-4]
- efficacy [7]: ≥ 80%

Structure (SMILES): CCOC1CCC2(CC1)NC(=O)C(c1c(Br)cc(OC(F)(F)F)cc1Br)=C2O (single isomer, unassigned) [I-a-9]
- Kill rate/% after 6 days [2, 9]: 85%
- Kill rate/% after 6 days [2, 10]: 65%

Structure (SMILES): COC1CCC2(CC1)NC(=O)C(c1c(C)cc(C)cc1OC(F)(F)F)=C2O (single isomer, unassigned) [I-a-49]
- Summer wheat observed (%) ([3]; 10 days after application, 25 g of a.i./ha, without safener): 10%
- Summer wheat observed (%) ([3]; 10 days after application, 50 g of a.i./ha, without safener): 20%
- Summer wheat observed (%) ([3]; 10 days after application, 100 g of a.i./ha, without safener): 40%

Structure (SMILES): COC1CCC2(CC1)NC(=O)C(c1c(C)cc(OC(F)(F)F)cc1Cl)=C2O (single isomer, unassigned) [I-a-39]
- Kill rate/% after 6 days ([6]; +AS (1000 ppm)): 40%
- Kill rate/% after 6 days ([6]; without AS): 10%

Structure (SMILES): CCOC1CCCC2(C1)NC(=O)C(c1c(C)cc(C)cc1OC(F)(F)F)=C2OC(C)=O (single isomer, unassigned) [(I-b-24)]
- Summer barley observed (%) herbicidal effect ([4]; 12.5 g of a.i./ha): 10%
- Summer barley observed (%) herbicidal effect ([4]; 25 g of a.i./ha): 20%
- Summer barley observed (%) herbicidal effect ([4]; 50 g of a.i./ha): 30%
- Summer barley observed (%) herbicidal effect ([4]; 100 g of a.i./ha): 30%
- Summer wheat observed (%) herbicidal effect ([3]; 12.5 g of a.i./ha, 10 days after application, without safener): 30%
- Summer wheat observed (%) herbicidal effect ([3]; 25 g of a.i./ha, 10 days after application, without safener): 40%
- Summer wheat observed (%) herbicidal effect ([3]; 50 g of a.i./ha, 10 days after application, without safener): 40%
- Summer wheat observed (%) herbicidal effect ([3]; 50 g of a.i./ha, 28 days after application, without safener): 20%
- Summer wheat observed (%) herbicidal effect ([3]; 100 g of a.i./ha, 10 days after application, without safener): 40%
- Summer wheat observed (%) herbicidal effect ([3]; 100 g of a.i./ha, 28 days after application, without safener): 20%
